# In US7258861B2, “TNF-derived peptides for use in treating oedema” (Innogenetics N.V., priority 2001, dated 2007):
# Assay: Quenching of tryptophan fluorescence by brominated lipids
# Conditions: acidic pH
# Description: In order to investigate whether chloride efflux was due to membrane binding or membrane insertion of TNF, we have analyzed whether brominated lipids were able to quench the intrinsic fluorescence of TNF and mutTNF upon membrane interaction. Brominated lipids have been useful in determining the topology of membrane proteins (Bolon et al., 1990) (Markello et al., 1985) as well as studying the membrane interaction of pore-forming toxins (Gonzalez-Manas et al., 1992) (Van der Goot et al., 1991) (Vecsey-Semjen et al., 1997). TNF contains two tryptophan residues, one at the top of the receptor binding domain and one at the top of the so called tip domain. If the tip of the TNF trimer were to insert into the lipid bilayer, the fluorescence of Trp-113 should be quenched upon insertion into liposomes composed of dioleoylphosphatidylglycerol that had bromines attached at positions 9 and 10 of the acyl chains. We have indeed previously observed that tryptophans located at the boundary between the lipid head groups and the acyl chains were succeptible to bromide quenching.
substance,measurement,value
TNF: E.coli-derived recombinant murine TNF,fluorescence quenching by brominated lipids,unable to see any fluorescence quenching
